In PMC5838106, “Cathelicidin promotes inflammation by enabling binding of self-RNA to cell surface scavenger receptors” (Scientific Reports, 2018):
Where no end group is shown, it is not given here.

Legend:
[1] = tested on: NHEKs; test: U1 RNA binding to the cell at 4 °C (immunocytofluorescence); assay type: cell-based, human; conditions: 1 hour, peptide 2.5 μM
Description: Figure 2 Structure and cell binding of cathelicidin and dsRNA. (a) Structures of LL37, LL34, and LL34(I20P) bound to dsRNA were solved using SAXS. SAXS data is plotted as the scattering intensity I(q) vs. the momentum transfer vector q. LL34 (blue) and LL34(I20P) (green) condense dsRNA into square lattices with first peak positions of q10 = 0.167 Å^−1 and 0.170 Å^−1, respectively. Higher order Bragg reflections due to scattering of the square lattice of LL34 and LL34(I20P) are labeled for both complexes. In comparison, LL37 (magenta) condenses dsRNA into a columnar lattice with short-ranged order, with a first peak position of q1 = 0.172 Å^−1. (b) Linear fits of Bragg peak positions indicate that LL34-dsRNA (blue) and LL34(I20P)-dsRNA (green) complexes have inter-dsRNA spacings of 3.76 nm and 3.70 nm, respectively. Each reflection corresponding to the peaks in a for LL34 and LL34(I20P) are labeled. Close overlap of the two linear fits indicate that LL34-dsRNA and LL34(I20P)-dsRNA complexes have similar unit cell structures and inter-dsRNA spacings. End-on views along the dsRNA long-axis of the columnar (c) LL37-dsRNA and (d) LL34-dsRNA or LL34(I20P)-dsRNA complexes are shown. In (d), LL34-dsRNA and LL34(I20P)-dsRNA both form square columnar structures with similar unit cell architectures. […]

[2] = tested on: Group A streptococcus (GAS); assay type: cell-based
Description: Figure 1 Inflammatory activity of cathelicidin can be dissociated from antimicrobial function (a) Transcriptomic analysis by RNASeq of primary cultures of normal human epidermal keratinocytes (NHEKs) treated with LL37 (2.5 μM) with or without U1 RNA (2.5 μg/mL) for 24 hours. Shown are gene sets induced > 2 fold over vehicle, and after treatment with LL37, U1 RNA, or the combination of LL37 + U1 RNA. (b) Gene Ontology analysis of gene sets from (a). The number of genes related to each biological process is indicated in parentheses. (c) Amino acid sequence of synthetic cathelicidin peptides used in this study. (d) Antimicrobial assay of cathelicidin peptides against group A streptococcus (GAS). GAS were incubated with various concentrations of each peptide (0–25 μM) for 6 hours, then surviving colonies counted after plating on Todd Hewitt Broth gel. (e) IFN-β1 mRNA abundance and (f) IL-6 mRNA abundance in NHEKs after treatment with cathelicidin peptides (2.5 μM) for 10 minutes, then stimulated with U1 RNA (2.5 μg/mL) for a further 6 hours. (n = 3). (g) IFN-β1 mRNA abundance and (h) IL-6 mRNA abundance in […] (PMA)-treated THP1 cells after treatment with cathelicidin peptides (3 μM) for 10 minutes, then stimulated with U1 RNA (12.5 μg/mL) overnight. (n = 3). Data presented are from one representative experiment of at least two independent experiments. […]

| Substance | capacity to enable U1 RNA to bind to the cell [1] | minimal bacteriocidal concentration (MBC) ([2]; 6 h) | antimicrobial activity against group A Streptococcus (GAS) ([2]; GAS incubated with peptide 0–25 μM for 6 hours, surviving colonies counted, Fig. 1d) |
| --- | --- | --- | --- |
| LL37 | showed the capacity to enable U1 RNA to bind to the cell | – | – |
| LLGDFFRKSKEKIGKEFKRIVQRIKDFLRNLVPR [LL34] | showed the capacity to enable U1 RNA to bind to the cell | ca. 5 uM | increased antimicrobial activity compared to LL37 |
